Test results published in patent US10617691B2, “Combination of an anti-CD19 antibody and a Bruton's tyrosine kinase inhibitor and uses thereof” (MORPHOSYS AG, priority 2015, dated 2020).

Test system: MEC-1 cells
Test: ADCC target cell killing of MEC-1 cells by NK cells (FACS, DAPI positive dead target cells), MOR00208 and Ibrutinib alone and in combination
Format: cell-based
Protocol: Cell lines tested: MEC-1 cells (DSMZ # ACC497). Cell lines are tested: chronic B-cell leukemia cell line; JVM-2 (ATCC® CRL-3002) a mantle cell lymphoma cell line; Ramos cells (ATCC number CRL-1596), a human Burkitt's lymphoma cells; HG-3 (DSMZ # ACC765), and CII (DSMZ # ACC773) are a chronic lymphocytic leukemia cell line; Su-DHL 6 (DSMZ # ACC572), U2932 (DSMZ # ACC633) and OCI-LY7 (DSMZ # ACC688) are a Diffuse large B-cell lymphoma (DLBCL) cell line; JVM-2 (ATCC® CRL-3002) is a mantle cell lymphoma cell line; and BALL-1 (DSMZ # ACC742) is an acute lymphoblastic leukemia cell line.
The cytotoxicity of MOR00208 and Ibrutinib alone and in combination were tested in the MEC-1 cell line (CLL). The cytotoxicity of MOR00208 and Ibrutinib alone and in combination are tested in the following target cell lines: JVM-2, Ramos, HG-3, CII, Su-DHL 6, U2932, OCI-LY7, JVM-2 and BALL-1.
Ibrutinib is a covalent inhibitor of Bruton's tyrosine kinase and should abrogate proliferation in target cell lines. MOR00208 targets CD19 and mediates target cell killing via ADCC. Target cell killing is measured using the following parameters: Ibrutinib at a concentration range of between 0.033 and 33 μM, specifically at 0.3 μM, 1.0 μM and 3.0 μM; MOR00208 at a concentration range from 0.001-10 nM, specifically at 0.01 nM, 0.1 nM, and 10 nM, and the combination of MOR00208 and Ibrutinib. The following are used as controls: RefmAb33 or NK cells alone. In the Ibrutinib group as well as in the MOR00208+Ibrutinib combination group, target cells are pre-treated with Ibrutinib for 7 days prior to the ADCC assay measurements. The target cells are counted and stained using 1 μg/ml CFSE end concentration. For DMSO treated target cells, an effector: target (E:T) ratio of 2:1 is chosen, corresponding to a cell density of 5×10^5/ml. The proliferative effect on target cells caused by Ibrutinib treatment was included by adjusting the E:T ratio in inhibitor treated cells. The NK cells are counted and adjusted to 1×10^6/ml. The target cell killing assays were performed as follows: using 96 well plates, 100 μl of target cell suspension was added per well, followed by 100 μl cell suspension of NK cells to each well resulting in an E:T ratio of 2:1. The antibodies were diluted in a range of 10-0.001 nM in medium. Cells were centrifuged and target: effector cell-pellets were re-suspended in 100 μl antibody-containing medium or the according control solution. The assay was incubated for 4 h in CO2-incubator at 37° C. After 10 min incubation on ice, 50 μl DAPI solution was added to each well (final concentration 1 μg/ml) and incubated on ice for 10 min. The cell killing measurements were performed with FACS-Verse. Dead target cells were DAPI positive.
In total, three experiments were performed in order to determine the mediation of ADCC on MEC-1 cells by the combination of MOR00208 and Ibrutinib.
The raw data (% dead cells) are analyzed as follows: 1) from the raw data (% dead cells), the background (controls) are subtracted, resulting in the specific killing for each treatment group; then 2) the specific killing values are normalized by setting the combination of MOR00208+Ibrutinib to 1.
Combination Index (CI) calculations are completed in order to determine synergy of the combination of the exemplified anti-CD19 antibody and Ibrutinib as compared to MOR00208 and Ibrutinib alone. Such calculations are described in Ting-Chao Chou, Theoretical Basis, Experimental Design, and Computerized Simulation of Synergism and Antagonism in Drug Combination Studies, Pharmacol Rev 58:621-681 (2006), which is incorporated by reference in its entirety and Chou T C, Talalay P, Quantitative analysis of dose-effect relationships: the combined effects of multiple drugs or enzyme inhibitors. Adv Enzyme Regul 22: 27-55 (1984), which is incorporated by reference in its entirety. The methods of Chou-Talalay are carried out using the CI-isobol method. […]

[1] = Experiment 1, Ibrutinib at 0.3 μM, MOR00208 0.01 nM, control (0.1% DMSO/Ref33) 25.27
[2] = Experiment 1, Ibrutinib at 0.3 μM, MOR00208 0.1 nM, control (0.1% DMSO/Ref33) 25.27
[3] = Experiment 1, Ibrutinib at 0.3 μM, MOR00208 10 nM, control (0.1% DMSO/Ref33) 25.27
[4] = Experiment 1, Ibrutinib at 1 μM, MOR00208 0.01 nM, control (0.1% DMSO/Ref33) 25.27
[5] = Experiment 1, Ibrutinib at 1 μM, MOR00208 0.1 nM, control (0.1% DMSO/Ref33) 25.27
[6] = Experiment 1, Ibrutinib at 1 μM, MOR00208 10 nM, control (0.1% DMSO/Ref33) 25.27
[7] = Experiment 1, Ibrutinib at 3 μM, MOR00208 0.01 nM, control (0.1% DMSO/Ref33) 25.27
[8] = Experiment 1, Ibrutinib at 3 μM, MOR00208 0.1 nM, control (0.1% DMSO/Ref33) 25.27
[9] = Experiment 1, Ibrutinib at 3 μM, MOR00208 10 nM, control (0.1% DMSO/Ref33) 25.27
[10] = Experiment 2, Ibrutinib at 0.3 μM, MOR00208 0.01 nM, control (0.03% DMSO/Ref33) 9.81
[11] = Experiment 2, Ibrutinib at 0.3 μM, MOR00208 0.1 nM, control (0.03% DMSO/Ref33) 9.81
[12] = Experiment 2, Ibrutinib at 0.3 μM, MOR00208 10 nM, control (0.03% DMSO/Ref33) 9.81
[13] = Experiment 2, Ibrutinib at 1 μM, MOR00208 0.01 nM, control (0.03% DMSO/Ref33) 9.81
[14] = Experiment 2, Ibrutinib at 1 μM, MOR00208 0.1 nM, control (0.03% DMSO/Ref33) 9.81
[15] = Experiment 2, Ibrutinib at 1 μM, MOR00208 10 nM, control (0.03% DMSO/Ref33) 9.81
[16] = Experiment 2, Ibrutinib at 3 μM, MOR00208 0.01 nM, control (0.03% DMSO/Ref33) 9.81
[17] = Experiment 2, Ibrutinib at 3 μM, MOR00208 0.1 nM, control (0.03% DMSO/Ref33) 9.81
[18] = Experiment 2, Ibrutinib at 3 μM, MOR00208 10 nM, control (0.03% DMSO/Ref33) 9.81
[19] = Experiment 3, Ibrutinib at 0.3 μM, MOR00208 0.01 nM, control (0.03% DMSO/Ref33) 16.40
[20] = Experiment 3, Ibrutinib at 0.3 μM, MOR00208 0.1 nM, control (0.03% DMSO/Ref33) 16.40
[21] = Experiment 3, Ibrutinib at 0.3 μM, MOR00208 10 nM, control (0.03% DMSO/Ref33) 16.40
[22] = Experiment 3, Ibrutinib at 1 μM, MOR00208 0.01 nM, control (0.03% DMSO/Ref33) 16.40
[23] = Experiment 3, Ibrutinib at 1 μM, MOR00208 0.1 nM, control (0.03% DMSO/Ref33) 16.40
[24] = Experiment 3, Ibrutinib at 1 μM, MOR00208 10 nM, control (0.03% DMSO/Ref33) 16.40
[25] = Experiment 3, Ibrutinib at 3 μM, MOR00208 0.01 nM, control (0.03% DMSO/Ref33) 16.40
[26] = Experiment 3, Ibrutinib at 3 μM, MOR00208 0.1 nM, control (0.03% DMSO/Ref33) 16.40
[27] = Experiment 3, Ibrutinib at 3 μM, MOR00208 10 nM, control (0.03% DMSO/Ref33) 16.40

Molecule | percent (%) dead cells (raw data) [1] [%] | percent (%) dead cells (raw data) [2] [%] | percent (%) dead cells (raw data) [3] [%] | percent (%) dead cells (raw data) [4] [%] | percent (%) dead cells (raw data) [5] [%] | percent (%) dead cells (raw data) [6] [%] | percent (%) dead cells (raw data) [7] [%] | percent (%) dead cells (raw data) [8] [%] | percent (%) dead cells (raw data) [9] [%] | percent (%) dead cells (raw data) [10] [%] | percent (%) dead cells (raw data) [11] [%] | percent (%) dead cells (raw data) [12] [%] | percent (%) dead cells (raw data) [13] [%] | percent (%) dead cells (raw data) [14] [%] | percent (%) dead cells (raw data) [15] [%] | percent (%) dead cells (raw data) [16] [%] | percent (%) dead cells (raw data) [17] [%] | percent (%) dead cells (raw data) [18] [%] | percent (%) dead cells (raw data) [19] [%] | percent (%) dead cells (raw data) [20] [%] | also measured
C=CC(=O)N1CCC[C@@H](n2nc(-c3ccc(Oc4ccccc4)cc3)c3c(N)ncnc32)C1 [Ibrutinib, 1-[(3R)-3-[4-amino-3-(4-phenoxyphenyl)-1H-pyrazolo[3,4-d]pyrimidin-1-yl]-1-piperidinyl]-2-propen-1-one] | 21.99 | 21.99 | 21.99 | 24.33 | 24.33 | 24.33 | 17.07 | 17.07 | 17.07 | 8.56 | 8.56 | 8.56 | 8.39 | 8.39 | 8.39 | 10.84 | 10.84 | 10.84 | 8.56 | 8.56 | percent (%) dead cells (raw data) [21]: 8.56%; percent (%) dead cells (raw data) [22]: 7.50%; percent (%) dead cells (raw data) [23]: 7.50%; percent (%) dead cells (raw data) [24]: 7.50%; percent (%) dead cells (raw data) [25]: 8.26%; percent (%) dead cells (raw data) [26]: 8.26%; percent (%) dead cells (raw data) [27]: 8.26%
MOR00208: anti-CD19 antibody; heavy chain SEQ ID NO: 14, light chain SEQ ID NO: 15 (antibody) heavy: EVQLVESGGGLVKPGGSLKLSCAASGYTFTSYVMHWVRQAPGKGLEWIGYINPYNDGTKYNEKFQGRVTISSDKSISTAYMELSSLRSEDTAMYYCARGTYYYGTRVFDYWGQGTLVTVSSASTKGPSVFPLAPSSKSTSGGTAALGCLVKDYFPEPVTVSWNSGALTSGVHTFPAVLQSSGLYSLSSVVTVPSSSLGTQTYICNVNHKPSNTKVDKKVEPKSCDKTHTCPPCPAPELLGGPDVFLFPPKPKDTLMISRTPEVTCVVVDVSHEDPEVQFNWYVDGVEVHNAKTKPREEQFNSTFRVVSVLTVVHQDWLNGKEYKCKVSNKALPAPEEKTISKTKGQPREPQVYTLPPSREEMTKNQVSLTCLVKGFYPSDIAVEWESNGQPENNYKTTPPMLDSDGSFFLYSKLTVDKSRWQQGNVFSCSVMHEALHNHYTQKSLSLSPGK light: DIVMTQSPATLSLSPGERATLSCRSSKSLQNVNGNTYLYWFQQKPGQSPQLLIYRMSNLNSGVPDRFSGSGSGTEFTLTISSLEPEDFAVYYCMQHLEYPITFGAGTKLEIKRTVAAPSVFIFPPSDEQLKSGTASVVCLLNNFYPREAKVQWKVDNALQSGNSQESVTEQDSKDSTYSLSSTLTLSKADYEKHKVYACEVTHQGLSSPVTKSFNRGEC | 56.54 | 72.31 | 73.77 | 56.54 | 72.31 | 73.77 | 56.54 | 72.31 | 73.77 | 37.57 | 52.10 | 50.83 | 37.57 | 52.10 | 50.83 | 37.57 | 52.10 | 50.83 | 63.68 | 81.30 | percent (%) dead cells (raw data) [21]: 81.41%; percent (%) dead cells (raw data) [22]: 63.68%; percent (%) dead cells (raw data) [23]: 81.30%; percent (%) dead cells (raw data) [24]: 81.41%; percent (%) dead cells (raw data) [25]: 63.68%; percent (%) dead cells (raw data) [26]: 81.30%; percent (%) dead cells (raw data) [27]: 81.41%
